Holding throughout (assay): NCI-60 cell line screen, 48 h
Experiment [1] relates to HL-60.
Experiment [2] relates to UACC-257.
In experiment [3] the test system is COLO 205.
The test system of experiment [4] is NCI-H522.
Experiment [5] relates to UO-31.
The subject of experiment [6] is K562.
Experiment [7] has as its system HOP-62.
In experiment [8] the test system is OVCAR-4.
The subject of experiment [9] is SK-OV-3.
Experiment [10] relates to TK-10.
Experiment [11] concerns HCC 2998.
The test system of experiment [12] is RPMI-8226.
In experiment [13] the test system is RXF 393.
Experiment [14] deals with IGROV-1.
Experiment [15] concerns HOP-92.
Experiment [16] relates to SK-MEL-2.

This note sets out measurements from ChEMBL document CHEMBL1201862, “PubChem BioAssay data set” (2004).

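1) Cells in 96-well plates. 2) Compound, 48 h, 5 concentrations. 3) Linear interpolation between surrounding doses. 4) Unreached endpoint = highest concentration. GI50: concentration for 50% inhibition of growth.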 The source made the active and inactive calls. No stated cut-off is given here; in the data, active = GI50 up to about 1.1 µM and inactive = higher. Bounds are passed on as bounds.

On to `COC(=O)CCC(=O)CC1CC(=O)C2CCCN12` (stereo unspecified), for which the GI50 in [1], in experiment [2], in experiment [3], in experiment [4], in experiment [5] and in experiment [6] was > 100 µM (inactive) each time. Further, the GI50 in experiment [7], in experiment [8], in [9], in experiment [10], in experiment [11] and in experiment [12] was > 100 µM (inactive) in each case. For the same compound, the GI50 in [13], in [14], in [15] and in experiment [16] was > 100 µM (inactive) each time.

In the case of `Cc1nc(C(N)=O)c(N)n1CCN1CCN(C(=O)CCCCCCCCCCNC2NC=Nc3[nH]cnc32)CC1` (stereo unspecified), the GI50 in [1] was 15.2 µM (inactive); in [2], 16.3 µM (inactive); in [3], 73.5 µM (inactive); in [4] it was > 10 µM (inactive); in [5], > 100 µM (inactive); in experiment [6] it was 13.2 µM (inactive). Moreover, the GI50 in experiment [7] was 91.6 µM (inactive); in experiment [9], > 100 µM (inactive); in [10], 90.2 µM (inactive); in experiment [11], > 100 µM (inactive); in experiment [14] it was 52.6 µM (inactive); in experiment [15], 16.3 µM (inactive). In experiment [16], the GI50 was 14.3 µM (inactive).

For `CC(=O)O[C@H]1C(=O)[C@@]2(C)C(C(OC(=O)c3ccccc3)[C@]3(O)CC(OC(=O)C(O)C(NC(=O)c4ccc(C(F)(F)F)cc4)c4ccccc4)C(C)=C1C3(C)C)[C@]1(OC(C)=O)CO[C@@H]1C[C@@H]2O` (stereo partly specified), the GI50 in experiment [1] was 0.0951 µM (active); in experiment [2], 0.236 µM (active); in experiment [3], 0.0706 µM (active); in experiment [4], 0.0755 µM (active); in experiment [6] it was 0.108 µM (active); in experiment [7], 0.0989 µM (active). The GI50 in experiment [8] was 8.77 µM (inactive); in experiment [9], 0.129 µM (active); in experiment [10], 1.95 µM (inactive); in experiment [11], 0.101 µM (active); in [12] it was 0.0628 µM (active); in experiment [14] it was 0.183 µM (active). The GI50 in experiment [15] was 2.13 µM (inactive); in [16], 0.0914 µM (active).

In the case of `O=C1NC2C(=O)N(Cc3ccccc3)C(=O)C2N1` (stereo unspecified), the GI50 in experiment [1], in experiment [2], in experiment [3], in experiment [4], in experiment [5] and in experiment [6] was > 100 µM (inactive) throughout. For the same compound, the GI50 in [7], in experiment [8], in [9], in [10], in [11] and in experiment [12] was > 100 µM (inactive) in each case. The GI50 in [13], in [14] and in experiment [15] was > 100 µM (inactive) throughout.

Turning to `CC/C(CC(=O)CCC(=O)Nc1ccc(C)c(C)c1)=N\NC(=O)C(N)=O`, the GI50 in experiment [1], in [2], in experiment [3], in [4], in [5] and in experiment [6] was > 100 µM (inactive) throughout. Besides, the GI50 in experiment [7], in experiment [8], in [9], in [10], in experiment [12] and in [14] was > 100 µM (inactive) each time. In experiment [15], the GI50 was > 100 µM (inactive).

On to `C=CCNC(=O)/C=C\C(=O)O`, for which the GI50 in [1], in experiment [2], in experiment [3], in [4], in [5] and in [6] was > 100 µM (inactive) each time. Besides, the GI50 in experiment [7], in experiment [8], in experiment [9], in experiment [10], in experiment [11] and in [13] was > 100 µM (inactive) each time. Further, the GI50 in [14], in [15] and in experiment [16] was > 100 µM (inactive) each time.

Regarding `COP(=O)(OC)/C(=N\Nc1ccc([N+](=O)[O-])cc1)NCc1ccccc1`, the GI50 in [1] is 21.2 µM (inactive); in [2], 21.8 µM (inactive); in experiment [3] it was 46.3 µM (inactive); in experiment [4], 13.4 µM (inactive); in experiment [6], 27.5 µM (inactive); in [7] it was 23.6 µM (inactive). The GI50 is 24.5 µM (inactive) in [8]; 30 µM (inactive) in [10]; 62.5 µM (inactive) in experiment [11]; 19.2 µM (inactive) in experiment [12]; 30.8 µM (inactive) in experiment [14]; 18.8 µM (inactive) in experiment [15]. Besides, the GI50 in [16] is 23 µM (inactive).

For the compound `Cc1ccc2nc3cc(C)c(=O)cc-3sc2c1`, the GI50 in experiment [1] was 3.11 µM (inactive); in experiment [2], 54.6 µM (inactive); in experiment [3], 94.8 µM (inactive); in experiment [4], 34.4 µM (inactive); in experiment [5], 67.3 µM (inactive); in experiment [6], 13.6 µM (inactive). Also, the GI50 in [7] was > 100 µM (inactive); in experiment [8] it was 37.8 µM (inactive); in experiment [9], > 100 µM (inactive); in experiment [10] it was > 100 µM (inactive); in experiment [11], > 100 µM (inactive); in experiment [14] it was > 100 µM (inactive). For the same compound, the GI50 in [15] and in experiment [16] was > 100 µM (inactive) throughout.

With `COc1ccc(/C=C2\CCCC(C(NO)c3ccc(OC)cc3)C2=NO)cc1` (stereo unspecified), the GI50 in experiment [1] is 16.2 µM (inactive); in experiment [2], 38.1 µM (inactive); in experiment [3], 44.3 µM (inactive); in [4], 27.2 µM (inactive); in [5], 28.8 µM (inactive); in experiment [6], 35.4 µM (inactive). For the same compound, the GI50 in experiment [7] is 98.9 µM (inactive); in experiment [8], 29.5 µM (inactive); in [9] it was > 100 µM (inactive); in experiment [10], 66.1 µM (inactive); in experiment [11], 61.2 µM (inactive); in experiment [12], 28.8 µM (inactive). The results for the GI50 in [13], in experiment [14] and in experiment [16] were 26.7 µM (inactive), 33.9 µM (inactive) and 85.1 µM (inactive), respectively.

In the case of `CC(=O)/C=C\C1CC2C=CC1C2` (stereo unspecified), the GI50 in experiment [1] is 26.8 µM (inactive); in [3], 37.6 µM (inactive); in [5] it was 41 µM (inactive); in experiment [6] it was 21.6 µM (inactive); in [7], 92.3 µM (inactive); in [8], 27.1 µM (inactive). Further, the GI50 is > 100 µM (inactive) in experiment [9]; 86.5 µM (inactive) in experiment [10]; 24.3 µM (inactive) in experiment [11]; 23.9 µM (inactive) in experiment [12]; 63 µM (inactive) in experiment [13]; 81.3 µM (inactive) in experiment [14]. The values for the GI50 in experiment [15] and in [16] were 29.2 µM (inactive) and 49.2 µM (inactive), respectively.

For the compound `COc1c(NC(C)=O)cc(C)cc1NC(C)=O`, the GI50 in experiment [1], in [2], in experiment [3], in experiment [4], in [6] and in experiment [7] was > 100 µM (inactive) in each case. The GI50 in [8], in experiment [9], in experiment [10], in experiment [11], in [12] and in [13] was > 100 µM (inactive) in each case. Moreover, the GI50 in experiment [15] and in experiment [16] was > 100 µM (inactive) in each case.

Consider `CS(=O)(=O)N(CCC#N)c1ccc(C=O)cc1`, for which the GI50 in experiment [1] is > 100 µM (inactive); in [2] it was > 100 µM (inactive); in [4] it was > 100 µM (inactive); in experiment [5], > 100 µM (inactive); in experiment [6], > 100 µM (inactive); in experiment [7], 97.9 µM (inactive). The GI50 in experiment [8], in [9], in [11], in [12], in experiment [14] and in [16] was > 100 µM (inactive) throughout.

On to `CC1(O)CCn2c(=O)c3cc4ccccc4cc3c(=O)n2C1O` (stereo unspecified), for which the GI50 in [1] was > 100 µM (inactive); in experiment [2] it was > 100 µM (inactive); in [3] it was > 100 µM (inactive); in experiment [4] it was 22 µM (inactive); in experiment [6] it was > 100 µM (inactive); in [7], > 100 µM (inactive). Moreover, the GI50 in experiment [9], in experiment [10], in experiment [11], in [12], in experiment [13] and in [14] was > 100 µM (inactive) in each case. Besides, the GI50 was 79.3 µM (inactive) in experiment [15] and > 100 µM (inactive) in experiment [16].

Regarding `O=c1[nH]c(C2CCCCC2)nc2cc(Cl)ccc12`, the GI50 in experiment [2] was > 100 µM (inactive); in experiment [3], > 100 µM (inactive); in experiment [4], > 100 µM (inactive); in [5], 58.2 µM (inactive); in experiment [6], > 100 µM (inactive); in experiment [8], 67.3 µM (inactive). Moreover, the GI50 was > 100 µM (inactive) in experiment [9]; > 100 µM (inactive) in [10]; > 100 µM (inactive) in experiment [11]; > 100 µM (inactive) in experiment [12]; 45.6 µM (inactive) in experiment [13]; > 100 µM (inactive) in [14]. The values for the GI50 in [15] and in [16] were 44 µM (inactive) and > 100 µM (inactive), respectively.
